# From US7217735B1, “Methods and compositions for enhancing delivery of therapeutic agents to tissues” (priority 1999, dated 2007)
# How the values were obtained:
# patient ovarian tumors [1] = test: Paclitaxel efflux from tumor histocultures; type: in vitro ADME, human
# [2] = tested on: Pgp-positive patient tumors; test: Paclitaxel accumulation by Pgp status; type: in vitro ADME, human; conditions: 12,000 nM
# Protocol: The expression of Pgp was measured by immunohistochemical methods, using procedures described previously (Toth K et al. (1994) Am J Pathol 144:227–236). Briefly, tissue sections were de-waxed and rehydrated sequentially in xylene, ethanol and water. Tissue sections were boiled in a 0.1 M citrate buffer, pH 6.0, in a microwave oven, then cooled and washed in phosphate-buffered saline (PBS). The tissue sections were incubated with Dako blocking solution for 10 min and subsequently with the following antibody solutions for 2 hr: a mouse anti-human Pgp antibody (JSB-1, 1:200 dilution) and a rabbit antihuman Pgp polyclonal antibody (ab-1, 1:100 dilution). […] The incubation was carried out in a humidified chamber at room temperature. The antibodies were diluted in PBS containing 5 mg/ml bovine serum albumin. For negative controls, we used mouse IgG as the primary antibody. […] After washing with PBS, the tissue sections were covered with the linker solution, and then with peroxidase-conjugated streptavidin solution. After washing twice with PBS, tissue sections were incubated for 5 to 7 minutes with diaminobenzidine and counterstained with hematoxylin.
# The statistical significance of the differences between groups was analyzed by the two-tailed unpaired Student's t-test.
# [3] = tested on: FaDu xenograft tumor histocultures; test: [3H]paclitaxel penetration by autoradiography; type: in vitro ADME, human; conditions: 120 nM
# Protocol: The autoradiographic method was as described previously (Lesser G J et al. (1995) Cancer Chemother Pharmacol 37:173–178). […] Tissue samples were mounted on cryostat chucks with embedding matrix (O.C.T. Compound, Miles Inc., Ellchart, Ind.) and cut into 10 μm thick sections in a cryostat at −20° C. […] The slides containing the tissue sections were placed against tritium-sensitive film (Ultrofilm) in an X-ray cassette and exposed for one to two weeks at room temperature. The films were developed for 3–5 minutes at room temperature (D-19 Developer), placed in a stop bath for 30 seconds, immersed in fixer for 3 minutes and exposed to running room temperature water for 15 minutes. The films were then rinsed in Photo-flo 200 and allowed to air-dry. Separately, the tissue section slides were stained with hematoxylin and eosin.
# The threshold for the autoradiographic image was adjusted to minimize the background signal.
# FaDu tumor histocultures = test: Apoptotic fraction and cell density with or without apoptosis-inducing pretreatment, in vitro; type: cell-based, human; set-up: Cell density: unit not given here
# Protocol: Drug treatment was as previously described.
# Two studies were performed.
# patient ovarian tumors [4] = test: Paclitaxel uptake in tumor histocultures
# Protocol: (§1) The specimens were washed with culture medium for three times and dissected into about 1 mm^3 fragments under sterile conditions. The culture medium consisted of a 1:1 mixture of MEM/DMEM for patient tumors, MEM for FaDu xenografts, and RPMI1640 for PC3 xenografts, supplemented with 9% heat-inactivated FBS, 2 mM glutamine, 0.1 mM non-essential amino acids (only for MEM/DMEM), 90:g/ml gentamicin and 90:g/ml cefotaxime sodium. Five histoculture fragments were placed on a 1 cm^2 piece of presoaked collagen gel and incubated with 4 ml culture medium in 6-well plates. After 2 to 4 days, tumor histocultures were used to study the kinetics of drug penetration.
# (§2) At predetermined times, 100 μl of medium was taken from each well and the histocultures were removed from the plates. The histocultures were blot-dried on a filter paper and their weights were measured. One hundred 1 of medium or tumor samples were mixed with 0.5 ml of Solvable tissue/gel solubilizer, incubated at 50° C. in an oven overnight, and analyzed for total radioactivity using liquid scintillation counting. […] Drug concentration in tissue was calculated as (drug amount) divided by (tissue weight) and was expressed in molar terms.
# The study design of experiments using patient tumors was dictated by the size of the specimens. On some occasions, specimens from an individual patient were only sufficient to study drug uptake and efflux at one or more but not all drug concentrations. A total of 7 head and neck tumors and 3 ovarian tumors were used. For the FaDu xenograft tumor, specimens from individual animals were sufficiently large that each tumor was used for studying uptake and efflux at all four drug concentrations.
# The statistical significance of the differences among patient (head and neck and ovarian, n=6) and FaDu (n=3) tumors, at equal initial medium concentrations, were analyzed by the two-tailed unpaired Student's t-test.
# [5] = tested on: patient and xenograft tumors; test: Paclitaxel efflux from tumor histocultures, all three tumor types
# Protocol: as §1, §2
# The study design of experiments using patient tumors was dictated by the size of the specimens. […]
# [6] = initial Cmedium 120 nM for 24 hr, at 24 hr post-treatment
# [7] = initial Cmedium 120 nM for 24 hr, at 72 hr post-treatment
# [8] = initial Cmedium 1,200 nM for 24 hr, at 24 hr post-treatment
# [9] = initial Cmedium 1,200 nM for 24 hr, at 72 hr post-treatment
# [10] = 10 nM [3H]paclitaxel, 4 hr, with pretreatment by 1:M nonradiolabeled paclitaxel
# [11] = 10 nM [3H]paclitaxel, 4 hr, without pretreatment
# [12] = 10 nM [3H]paclitaxel, 16 hr, with pretreatment by 1:M nonradiolabeled paclitaxel
# [13] = 10 nM [3H]paclitaxel, 16 hr, without pretreatment
# [14] = 10 nM [3H]paclitaxel, 24 hr, with pretreatment by 1:M nonradiolabeled paclitaxel
# [15] = 10 nM [3H]paclitaxel, 24 hr, without pretreatment
# [16] = 10 nM [3H]paclitaxel, 32 hr, with pretreatment by 1:M nonradiolabeled paclitaxel
# [17] = 10 nM [3H]paclitaxel, 32 hr, without pretreatment
# [18] = 10 nM [3H]paclitaxel, 48 hr, with pretreatment by 1:M nonradiolabeled paclitaxel
# [19] = 10 nM [3H]paclitaxel, 48 hr, without pretreatment
# [20] = 10 nM [3H]paclitaxel, 72 hr, with pretreatment by 1:M nonradiolabeled paclitaxel
# [21] = 10 nM [3H]paclitaxel, 72 hr, without pretreatment
# [22] = 50 nM [3H]paclitaxel, 4 hr, with pretreatment by 1:M nonradiolabeled paclitaxel
# [23] = 50 nM [3H]paclitaxel, 4 hr, without pretreatment
# [24] = 50 nM [3H]paclitaxel, 16 hr, with pretreatment by 1:M nonradiolabeled paclitaxel
# [25] = 50 nM [3H]paclitaxel, 16 hr, without pretreatment
# [26] = 50 nM [3H]paclitaxel, 24 hr, with pretreatment by 1:M nonradiolabeled paclitaxel
# [27] = 50 nM [3H]paclitaxel, 24 hr, without pretreatment
# [28] = 50 nM [3H]paclitaxel, 32 hr, with pretreatment by 1:M nonradiolabeled paclitaxel
# [29] = 50 nM [3H]paclitaxel, 32 hr, without pretreatment
# [30] = 50 nM [3H]paclitaxel, 48 hr, with pretreatment by 1:M nonradiolabeled paclitaxel
# [31] = 50 nM [3H]paclitaxel, 48 hr, without pretreatment
# [32] = 50 nM [3H]paclitaxel, 72 hr, with pretreatment by 1:M nonradiolabeled paclitaxel
# [33] = 50 nM [3H]paclitaxel, 72 hr, without pretreatment
# [34] = 50 nM x 24 hr, 24 hr after initiation of treatment
# [35] = 50 nM x 24 hr, 36 hr after initiation of treatment
# [36] = 600 nM x 1 hr, 23 hr later 50 nM x 12 hr, 24 hr after initiation of treatment
# [37] = 600 nM x 1 hr, 23 hr later 50 nM x 12 hr, 36 hr after initiation of treatment
smiles,measurement,setting,value
CC(=O)O[C@H]1C(=O)[C@@]2(C)[C@H]([C@H](OC(=O)c3ccccc3)[C@]3(O)C[C@H](OC(=O)[C@H](O)[C@@H](NC(=O)c4ccccc4)c4ccccc4)C(C)=C1C3(C)C)[C@]1(OC(C)=O)CO[C@@H]1C[C@@H]2O [paclitaxel],% remaining in tumor,patient ovarian tumors [1]; [6],39.8 ± 14.2%
same,Cmedium,patient ovarian tumors [1]; [6],1.19 ± 0.24 nM
same,Ctumor,patient ovarian tumors [1]; [6],0.615 ± :M
same,% remaining in tumor,patient ovarian tumors [1]; [7],35.7 ± 18.5%
same,Cmedium,patient ovarian tumors [1]; [7],1.60 ± 0.26 nM
same,Ctumor,patient ovarian tumors [1]; [7],0.520 ± 0.196 :M
same,"T1/2,efflux","patient ovarian tumors [1]; initial Cmedium 1,200 nM for 24 hr",5.00 ± 2.93 h
same,% remaining in tumor,patient ovarian tumors [1]; [8],25.9 ± 8.3%
same,Cmedium,patient ovarian tumors [1]; [8],12.8 ± 3.41 nM
same,Ctumor,patient ovarian tumors [1]; [8],5.13 ± :M
same,% remaining in tumor,patient ovarian tumors [1]; [9],19.8 ± 6.6%
same,Cmedium,patient ovarian tumors [1]; [9],16.7 ± 2.9 nM
same,Ctumor,patient ovarian tumors [1]; [9],4.20 ± 1.79 :M
same,lower accumulation in Pgp-positive vs Pgp-negative patient tumors (average difference),[2],< 25%
same,cell layers penetrated,[3]; during the first 24 hours,15 cell layers
same,cell layers penetrated,[3]; during the second 24 hours,> 80 cell layers
same,Apoptotic fraction,FaDu tumor histocultures; [10],23.6 ± 1.3%
same,Cell density,FaDu tumor histocultures; [10],64.2 ± 3.5
same,Apoptotic fraction,FaDu tumor histocultures; [11],3.93 ± 0.87%
same,Cell density,FaDu tumor histocultures; [11],86.3 ± 4.0
same,Apoptotic fraction,FaDu tumor histocultures; [12],24.6 ± 4.8%
same,Cell density,FaDu tumor histocultures; [12],64.3 ± 1.8
same,Apoptotic fraction,FaDu tumor histocultures; [13],4.98 ± 0.84%
same,Cell density,FaDu tumor histocultures; [13],80.2 ± 2.9
same,Apoptotic fraction,FaDu tumor histocultures; [14],26.6 ± 2.4%
same,Cell density,FaDu tumor histocultures; [14],64.0 ± 5.2
same,Apoptotic fraction,FaDu tumor histocultures; [15],7.32 ± 1.80%
same,Cell density,FaDu tumor histocultures; [15],81.6 ± 2.5
same,Apoptotic fraction,FaDu tumor histocultures; [16],30.1 ± 3.4%
same,Cell density,FaDu tumor histocultures; [16],60.1 ± 4.2
same,Apoptotic fraction,FaDu tumor histocultures; [17],6.64 ± 1.07%
same,Cell density,FaDu tumor histocultures; [17],79.9 ± 2.1
same,Apoptotic fraction,FaDu tumor histocultures; [18],34.9 ± 5.2%
same,Cell density,FaDu tumor histocultures; [18],62.3 ± 3.1
same,Apoptotic fraction,FaDu tumor histocultures; [19],9.18 ± 1.31%
same,Cell density,FaDu tumor histocultures; [19],77.8 ± 3.0
same,Apoptotic fraction,FaDu tumor histocultures; [20],31.0 ± 4.4%
same,Cell density,FaDu tumor histocultures; [20],61.0 ± 2.2
same,Apoptotic fraction,FaDu tumor histocultures; [21],11.0 ± 1.7%
same,Cell density,FaDu tumor histocultures; [21],82.6 ± 2.2
same,Apoptotic fraction,FaDu tumor histocultures; [22],26.3 ± 5.4%
same,Cell density,FaDu tumor histocultures; [22],63.1 ± 4.5
same,Apoptotic fraction,FaDu tumor histocultures; [23],2.74 ± 0.12%
same,Cell density,FaDu tumor histocultures; [23],85.8 ± 3.6
same,Apoptotic fraction,FaDu tumor histocultures; [24],36.0 ± 3.9%
same,Cell density,FaDu tumor histocultures; [24],60.8 ± 4.9
same,Apoptotic fraction,FaDu tumor histocultures; [25],7.97 ± 2.03%
same,Cell density,FaDu tumor histocultures; [25],83.9 ± 3.3
same,Apoptotic fraction,FaDu tumor histocultures; [26],36.4 ± 2.0%
same,Cell density,FaDu tumor histocultures; [26],58.3 ± 1.1
same,Apoptotic fraction,FaDu tumor histocultures; [27],17.0 ± 2.8%
same,Cell density,FaDu tumor histocultures; [27],77.0 ± 3.8
same,Apoptotic fraction,FaDu tumor histocultures; [28],37.4 ± 4.5%
same,Cell density,FaDu tumor histocultures; [28],53.2 ± 2.1
same,Apoptotic fraction,FaDu tumor histocultures; [29],19.1 ± 2.5%
same,Cell density,FaDu tumor histocultures; [29],71.2 ± 4.6
same,Apoptotic fraction,FaDu tumor histocultures; [30],39.8 ± 3.1%
same,Cell density,FaDu tumor histocultures; [30],53.6 ± 2.4
same,Apoptotic fraction,FaDu tumor histocultures; [31],28.3 ± 2.9%
same,Cell density,FaDu tumor histocultures; [31],68.8 ± 2.5
same,Apoptotic fraction,FaDu tumor histocultures; [32],37.9 ± 3.4%
same,Cell density,FaDu tumor histocultures; [32],47.8 ± 3.2
same,Apoptotic fraction,FaDu tumor histocultures; [33],27.2 ± 3.0%
same,Cell density,FaDu tumor histocultures; [33],61.1 ± 2.8
same,Apoptotic fraction,FaDu tumor histocultures; [34],15.2%
same,Cell density,FaDu tumor histocultures; [34],71.3 ± 2.9
same,Apoptotic fraction,FaDu tumor histocultures; [35],17.0%
same,Cell density,FaDu tumor histocultures; [35],72.6 ± 3.2
same,Apoptotic fraction,FaDu tumor histocultures; [36],20.3 ± 4.3%
same,Cell density,FaDu tumor histocultures; [36],60.9 ± 1.3
same,Apoptotic fraction,FaDu tumor histocultures; [37],25.4 ± 3.4%
same,Cell density,FaDu tumor histocultures; [37],62.4 ± 4.2
same,apoptosis caused by pretreatment,"FaDu tumor histocultures; 1,000 nM nonradiolabeled paclitaxel for 3 hr, at 24 hr, preliminary study",~30%
same,Mass balance,patient ovarian tumors [4]; initial Cmedium 12 nM,89.3 ± 5.4%
same,Steady state Cmedium,patient ovarian tumors [4]; initial Cmedium 12 nM,10.6 ± 0.7 nM
same,Steady state Ctumor,patient ovarian tumors [4]; initial Cmedium 12 nM,1.32 ± 0.31 :M
same,Mass balance,patient ovarian tumors [4]; initial Cmedium 120 nM,84.5 ± 7.3%
same,Steady state Cmedium,patient ovarian tumors [4]; initial Cmedium 120 nM,86.4 ± 2.3 nM
same,Steady state Ctumor,patient ovarian tumors [4]; initial Cmedium 120 nM,2.86 ± 1.28 :M
same,Mass balance,"patient ovarian tumors [4]; initial Cmedium 1,200 nM",85.2 ± 2.5%
same,Steady state Cmedium,"patient ovarian tumors [4]; initial Cmedium 1,200 nM",870 ± 2.6 nM
same,Steady state Ctumor,"patient ovarian tumors [4]; initial Cmedium 1,200 nM",30.1 ± 11.7 :M
same,Mass balance,"patient ovarian tumors [4]; initial Cmedium 12,000 nM",93.3 ± 4.5%
same,Steady state Cmedium,"patient ovarian tumors [4]; initial Cmedium 12,000 nM","10,500 ± 920 nM"
same,Steady state Ctumor,"patient ovarian tumors [4]; initial Cmedium 12,000 nM",211 ± 80 :M
same,time at which drug concentration declined to pseudo steady state level,[5],48 h
